Reference: paper PMC5471252, “Anti-leukemia activity of a Hsp70 inhibitor and its hybrid molecules” (Scientific Reports, 2017)

Columns and labels:
HL-60 cells = assay: MTT assay, cell viability of HL-60 cells; assay type: cell-based; conditions: Homo sapiens, 48 h, mean ± s.d., n = 3, read-out: IC50 values of compounds for leukemia cells
KG-1 cells = assay: MTT assay, cell viability of KG-1 cells; assay type: cell-based; conditions: Homo sapiens, 48 h, mean ± s.d., n = 3, read-out: IC50 values of compounds for leukemia cells
THP-1 cells = assay: MTT assay, cell viability of THP-1 cells; assay type: cell-based; conditions: Homo sapiens, 48 h, mean ± s.d., n = 3, read-out: IC50 values of compounds for leukemia cells
U937 cells = assay: MTT assay, cell viability of U937 cells; assay type: cell-based; conditions: Homo sapiens, U-937, 48 h, mean ± s.d., n = 3, read-out: IC50 values of compounds for leukemia cells
Jurkat cells = assay: MTT assay, cell viability of Jurkat cells; assay type: cell-based; conditions: Homo sapiens, 48 h, mean ± s.d., n = 3, read-out: IC50 values of compounds for leukemia cells
K562 cells = assay: MTT assay, cell viability of K562 cells; assay type: cell-based; conditions: Homo sapiens, 48 h, mean ± s.d., n = 3, read-out: IC50 values of compounds for leukemia cells
[1] = tested on: human leukemia cells (HL-60, KG-1, THP-1, U937, Jurkat and K562 cells); assay: MTT assay, all tested leukemia cells (summary statements); conditions: all tested leukemia cells, MTT, compared with Az, GD and imatinib
Method: To assess anti-leukemia activity of Az, several human leukemia cells (HL-60 cells, acute myeloid leukemia; Jurkat cells, acute T-lymphocytic leukemia; KG-1 cells, acute myeloid leukemia; U937 cells, acute myeloid leukemia; THP-1 cells, acute monocytic leukemia; K562 cells, chronic myeloid leukemia) were incubated with Az for 48 h. […] An MTT assay was then performed to measure cell viabilities.
Cells were exposed to each compound (a HCl salt form) at various concentrations for indicated time periods (24 or 48 h) in culture media. MTT assays were conducted according to known procedures. The absorbance at 570 nm was determined by employing a microplate reader (TECAN, Infinite® 200 PRO).

ATPase domain of Hsp70 = molecular target: T1, ATPase domain of Hsp70 (Homo sapiens, UniProt P0DMV8); assay: PiColorLock ATPase assay, Hsp70; assay type: biochemical; conditions: 10, 20 and 40 µM compound, 10 µM ATP, compared with Az
T1 construct: mixed with 2 µg of an ATPase domain of Hsp70
Method: (§1) Inhibition by the hybrids on the ATPase activities of Hsp70 and Hsp90 was determined by using a PiColorLock assay and on the kinase activity of Abl by using a radiometric assay.
ATPase assays. ATPase assays were conducted in 20 mM Tris-HCl, 10 mM MgCl2 and 100 mM KCl buffer solution mixed with 2 µg of an ATPase domain of Hsp70. Each compound (10, 20 and 40 µM) was added to the protein solution in a 96-well plate. After the mixture was placed in the plate for 30 min at room temperature, 10 µM ATP was added to the mixture and the mixture was incubated for 3 h at 37 °C. To measure ATPase activity, 10 µl of a 1:100 mixture of PiColorLock Gold reagent (Innova Biosciences) and an accelerator was added to each well. After 5 min at room temperature, 4 µL of a stabilizer was added to the mixture and then incubated for additional 30 min before taking measurement. The absorbance at 620nm was measured by using an Infinite® 200 PRO multimode microplate reader. The same procedure was used to measure ATPase activity of Hsp90 except concentrations of protein (1 µg) and ATP (1 mM).
(§2) Supplementary Figure S10. Inhibitory effect of hybrid molecules on Hsp70, Hsp90 and Abl activities. (a) ATPase activity of Hsp70 was measured by using a Pi-Colorlock assay after incubation of an ATPase domain of Hsp70 with various concentrations of indicated molecules and 10 µM ATP (mean ± s.d., n =3). (b) ATPase activity of Hsp90 was measured by using a Pi-Colorlock assay after incubation of Hsp90 with various concentrations of indicated molecules and 1 mM ATP (mean ± s.d., n = 3). (c) Abl kinase activity was measured by using a radiometric kinase assay after incubation of Abl with a peptide substrate in the presence of various concentrations of indicated molecules and γ-^33P-ATP (mean ± s.d., n =3).

human recombinant Abl = molecular target: T2, human recombinant Abl (Homo sapiens, UniProt P00519); assay: Radiometric Abl kinase assay; assay type: biochemical; conditions: compared with imatinib
T2 construct: purchased Eurofins Pharma Discovery Services (UK Limited); host or cells: insect cells
Method: as §1
Abl kinase assays. Abl kinase assays were conducted by Eurofins Pharma Discovery Services (UK Limited). Briefly, each compound was pre-incubated with 0.25 µg/mL of human recombinant Abl (expressed in insect cells) in 20 mM MOPS containing 1 mM EDTA, 0.01% Brij-35, 5% glycerol, 0.1% β-mercaptoethanol and 1 mg/mL BSA for 15 min at 37 °C. To the enzyme mixture was added 0.2 mg/mL of poly(Glu:Tyr), 10 µM ATP and 0.25 µCi [γ^33P]ATP. After incubation for 30 min, 3% H3PO4 was added to the mixture to stop enzyme reactions. An aliquot was removed and counted to determine the amount of [^33P]poly(Glu:Tyr) formed by using a Trilux scintillation counter (Wallac Microbeta 12-detector model, Perkin Elmer).
as §2, with “(c) Abl kinase activity was measured by using a radiometric kinase assay after incubation of Abl with a peptide substrate in the presence of various concentrations of indicated molecules and γ-^33P-ATP (mean ± s.d., n =3).” left out

HL-60 and K562 cells = assay: Flow cytometry, fluorescein-annexin V and PI staining; assay type: cell-based, human; conditions: 24 h; 10 µM Az, 10 µM GD or 4 µM Az-O3-GD
Method: To determine whether Az promotes leukemia cell death via apoptosis, acute leukemia HL-60 and chronic leukemia K562 cells were independently incubated with Az. The treated cells were then exposed to a mixed solution of fluorescein-annexin V and propidium iodide (PI) and flow cytometry analysis was conducted. […] The size of the treated cells was also assessed by using flow cytometry. […] We also investigated if the mitochondrial membrane potential in cells treated with Az is disrupted. To test this possibility, HL-60 and K562 cells were exposed to Az and subsequently stained with a membrane potential sensitive JC-1 probe. […] This serves as another evidence for apoptosis induced by Az.
HL-60 and K562 cells were incubated with each compound for 24 h in culture media. Cells were re-suspended with 500 μL binding buffer (10 mM HEPES, […] and 2.5 mM CaCl2, pH 7.5) and then incubated with the FITC-annexin V apoptosis detection kit with PI according to the protocol provided by the manufacturer. Flow cytometry was carried out by using a BD FACSVerse™ instrument (BD Biosciences) and the data were analyzed by using a FlowJo™ software (BD Biosciences).

T1 sequence (P0DMV8 2-386 limits assumed): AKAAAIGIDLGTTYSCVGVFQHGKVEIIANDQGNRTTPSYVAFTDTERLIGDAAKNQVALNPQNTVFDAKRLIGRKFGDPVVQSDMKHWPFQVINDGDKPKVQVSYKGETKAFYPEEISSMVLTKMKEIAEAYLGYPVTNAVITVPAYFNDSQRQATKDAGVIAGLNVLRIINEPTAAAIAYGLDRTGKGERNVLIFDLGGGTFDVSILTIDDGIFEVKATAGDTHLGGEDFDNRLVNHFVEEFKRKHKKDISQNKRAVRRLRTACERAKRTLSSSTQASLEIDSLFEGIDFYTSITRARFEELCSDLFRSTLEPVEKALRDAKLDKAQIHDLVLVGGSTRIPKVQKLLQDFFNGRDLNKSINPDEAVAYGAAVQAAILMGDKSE
T2 sequence (P00519 whole entry): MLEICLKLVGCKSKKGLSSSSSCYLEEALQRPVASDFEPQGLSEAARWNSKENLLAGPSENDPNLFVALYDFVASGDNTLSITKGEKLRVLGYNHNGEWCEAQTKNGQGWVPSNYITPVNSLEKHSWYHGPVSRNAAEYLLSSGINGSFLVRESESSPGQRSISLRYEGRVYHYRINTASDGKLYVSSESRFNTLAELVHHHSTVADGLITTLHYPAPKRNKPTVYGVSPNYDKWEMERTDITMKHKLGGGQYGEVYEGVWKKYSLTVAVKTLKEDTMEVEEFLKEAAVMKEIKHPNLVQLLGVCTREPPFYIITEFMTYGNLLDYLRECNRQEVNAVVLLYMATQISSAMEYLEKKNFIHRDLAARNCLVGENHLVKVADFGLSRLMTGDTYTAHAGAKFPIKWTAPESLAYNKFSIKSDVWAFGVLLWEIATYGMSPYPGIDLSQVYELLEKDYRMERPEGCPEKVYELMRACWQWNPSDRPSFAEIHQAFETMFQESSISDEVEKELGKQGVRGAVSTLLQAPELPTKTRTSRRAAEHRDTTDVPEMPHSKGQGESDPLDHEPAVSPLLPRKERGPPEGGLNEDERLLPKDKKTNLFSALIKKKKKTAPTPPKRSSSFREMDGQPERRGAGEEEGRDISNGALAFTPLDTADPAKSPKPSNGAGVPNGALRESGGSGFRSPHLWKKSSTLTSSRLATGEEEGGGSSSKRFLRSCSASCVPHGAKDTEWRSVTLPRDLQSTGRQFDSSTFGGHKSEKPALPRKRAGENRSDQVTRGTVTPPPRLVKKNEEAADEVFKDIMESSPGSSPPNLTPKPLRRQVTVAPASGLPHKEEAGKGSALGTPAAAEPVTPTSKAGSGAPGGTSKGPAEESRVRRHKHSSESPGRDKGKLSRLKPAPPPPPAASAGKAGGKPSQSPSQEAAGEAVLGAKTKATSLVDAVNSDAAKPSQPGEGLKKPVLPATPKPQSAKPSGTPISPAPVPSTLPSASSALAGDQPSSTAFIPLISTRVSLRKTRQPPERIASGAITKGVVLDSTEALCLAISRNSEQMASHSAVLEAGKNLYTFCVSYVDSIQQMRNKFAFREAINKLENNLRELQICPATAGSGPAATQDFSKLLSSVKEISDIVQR

SMILES	IC50 (HL-60 cells) [µM]	IC50 (KG-1 cells) [µM]	IC50 (THP-1 cells) [µM]	IC50 (U937 cells) [µM]	IC50 (Jurkat cells) [µM]	IC50 (K562 cells) [µM]	cytotoxicity relative to the individual inhibitors [1]	inhibition of the ATPase activity of Hsp70 (ATPase domain of Hsp70)	inhibitory activity towards Abl kinase (human recombinant Abl)	apoptosis, annexin V binding and PI uptake (HL-60 and K562 cells)
COc1ccc(-c2nc(-c3cc(C(F)(F)F)cc(C(F)(F)F)c3)n(Cc3ccc(C(=O)NCCOCCOCCNC4=C5C[C@@H](C)C[C@H](OC)[C@H](O)[C@@H](C)/C=C(\C)[C@H](OC(N)=O)[C@@H](OC)/C=C\C=C(/C)C(=O)NC(=CC4=O)C5=O)cc3)c2-c2ccc(OC)cc2)cc1 [Az-GD]	0.73 ± 0.22	0.91 ± 0.41	0.36 ± 0.12	1.12 ± 0.32	0.89 ± 0.25	0.63 ± 0.21	greatly enhanced cytotoxicities	–	–	–
COc1ccc(-c2nc(-c3cc(C(F)(F)F)cc(C(F)(F)F)c3)n(Cc3ccc(C(=O)NCCOCCOCCOCCN4CCN(Cc5ccc(C(=O)Nc6ccc(C)c(Nc7nccc(-c8cccnc8)n7)c6)cc5)CC4)cc3)c2-c2ccc(OC)cc2)cc1 [Az-O3-Imatinib]	> 10	> 10	> 10	> 10	> 10	4.3 ± 0.91	poorer cytotoxicity	much weaker inhibitors of Hsp70 compared to Az	significantly reduced inhibitory activities towards Abl kinase compared to imatinib	–
COc1ccc(-c2nc(-c3cc(C(F)(F)F)cc(C(F)(F)F)c3)n(Cc3ccc(C(=O)NCCOCCOCCOCCOCCN4CCN(Cc5ccc(C(=O)Nc6ccc(C)c(Nc7nccc(-c8cccnc8)n7)c6)cc5)CC4)cc3)c2-c2ccc(OC)cc2)cc1 [Az-O4-Imatinib]	> 10	> 10	> 10	> 10	> 10	4.5 ± 0.88	poorer cytotoxicity	much weaker inhibitors of Hsp70 compared to Az	significantly reduced inhibitory activities towards Abl kinase compared to imatinib	–
COc1ccc(-c2nc(-c3cc(C(F)(F)F)cc(C(F)(F)F)c3)n(Cc3ccc(C(=O)NCCOCCOCCNC(=O)COCCOCCOCCNC4=C5C[C@@H](C)C[C@H](OC)[C@H](O)[C@@H](C)/C=C(\C)[C@H](OC(N)=O)[C@@H](OC)/C=C\C=C(/C)C(=O)NC(=CC4=O)C5=O)cc3)c2-c2ccc(OC)cc2)cc1 [Az-amide-GD]	–	–	–	–	–	–	poorer cytotoxicity	lower inhibitory activity towards Hsp70 than Az	–	–
COC1=C2C[C@@H](C)C[C@H](OC)[C@H](O)[C@@H](C)/C=C(\C)[C@H](OC(N)=O)[C@@H](OC)/C=C\C=C(/C)C(=O)NC(=CC1=O)C2=O [GD, geldanamycin, reference compound]	2.3 ± 0.74	3.2 ± 1.21	0.9 ± 0.33	4.8 ± 1.22	4.8 ± 1.06	3.7 ± 1.11	–	–	–	induces apoptosis
